Starred links: 1 amine or outer side, 2 acyl side, 3 side chain; linkers in the order of their positions; H or OH if unused. Non-standard residues stand in square brackets, D forms with d. Residues, ends and D or L forms follow the SMILES beside them. *: point of attachment. Propanoyl(3-(3-pyridyl)) = O=C(CCc1cccnc1)*; Propanoyl(3-(4-pyridyl)) = O=C(CCc1ccncc1)*; Acetyl(pyridin-2-yl) = O=C(Cc1ccccn1)*; Sta = CC(C)C[C@H](N)[C@@H](O)CC(=O)O; Acetyl(3-pyridyl) = O=C(Cc1cccnc1)*; Acetyl(4-pyridyl) = O=C(Cc1ccncc1)*; X3 = O=C(CC1CCCN([*:1])C1)[*:2]; Nicotinoyl = O=C(c1cccnc1)*; X2 = O=C(CCC(=O)*)c1ccccn1; X6 = O=C(CCC(=O)*)c1cccnc1; X5 = O=C(CCC(O)c1ccccn1)*; X7 = O=C(CCC(O)c1cccnc1)*; Nle = CCCC[C@H](N)C(=O)O; X1 = O=C(CCCc1ccccn1)*; X8 = O=C(CCCc1cccnc1)*; Boc = CC(C)(C)OC(=O)*
Target: T1, human plasma renin (Homo sapiens, UniProt P00797)
T1 construct: from tissue; host or cells: human plasma pool
T1 sequence (P00797 67-406): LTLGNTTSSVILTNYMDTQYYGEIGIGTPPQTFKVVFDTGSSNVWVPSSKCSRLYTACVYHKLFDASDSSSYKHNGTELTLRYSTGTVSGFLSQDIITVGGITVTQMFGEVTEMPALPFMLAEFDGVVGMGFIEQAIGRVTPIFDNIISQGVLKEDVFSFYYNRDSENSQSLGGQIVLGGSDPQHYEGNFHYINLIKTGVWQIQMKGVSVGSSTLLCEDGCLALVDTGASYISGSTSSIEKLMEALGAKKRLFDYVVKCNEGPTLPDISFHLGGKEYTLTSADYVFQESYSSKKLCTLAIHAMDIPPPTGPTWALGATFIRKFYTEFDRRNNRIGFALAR
Experiment: Inhibition of human plasma renin activity (PRA) in vitro, angiotensin I released measured by radioimmunoassay
Type: biochemical
Details: human plasma pool rich in renin, 60 minutes at 37° C., phosphate buffer pH 7.4; 5 to 10 doses; read-out: Inhibition of human PRA -log IC50 M pH 7.4 (converted)
Method: The products according to the invention were studied for their therapeutic properties and especially their inhibitory action on enzymes. More particularly, the compounds were evaluated "in vitro" in terms of their inhibition of human plasma renin activity (PRA).
Human plasma contains the substrate angiotensinogen and the enzyme renin. […] An inhibitor of the conversion enzyme, phenylmethylsulfonyl fluoride (PMSF), is added to the incubation medium.
420 microliters of human plasma
11 to 50 microliters of the product to be studied, at variable concentrations
A solution of acetic acid in methaol (19/1 by volume) and a solution of sodium hydroxide in methanol (2/1 by volume) are prepared. In a mixture of equal volumes of these 2 solutions, a 0.001M stock solution of the peptide is prepared. The subsequent dilutions of the peptide are then made up in the phosphate buffer.
The results are expressed by their logarithmic value (-log IC50).

| Structure (SMILES) | IC50 [nM] |
| --- | --- |
| CCCC[C@H](NC(=O)[C@H](Cc1ccccc1)NC(=O)CCC(=O)c1ccccn1)C(=O)N[C@@H](CC(C)C)[C@@H](O)CC(=O)N[C@@H](CC(C)C)C(=O)N[C@@H](Cc1ccccc1)C(=O)OC [SR 42793] (X2-F[Nle][Sta]LF-OMe) | 891 |
| CCCC[C@H](NC(=O)[C@H](Cc1ccccc1)NC(=O)c1cccnc1)C(=O)N[C@@H](CC(C)C)[C@@H](O)CC(=O)N[C@@H](C)C(=O)N[C@@H](CC(C)C)C(=O)OC [SR 42873, N-(Nicotinoyl)-Phe-Nle-Sta-Ala-Leu-OMe] (Nicotinoyl-F[Nle][Sta]AL-OMe) | 81.3 |
| CCCC[C@H](NC(=O)[C@H](Cc1ccccc1)NC(=O)CCC(O)c1ccccn1)C(=O)N[C@@H](CC(C)C)[C@@H](O)CC(=O)N[C@@H](CC(C)C)C(=O)N[C@@H](Cc1ccccc1)C(=O)OC (stereo partly shown) [SR 42991] (X5-F[Nle][Sta]LF-OMe) | 58.9 |
| CCCC[C@H](NC(=O)[C@H](Cc1ccccc1)NC(=O)CCC(=O)c1cccnc1)C(=O)N[C@@H](CC(C)C)[C@@H](O)CC(=O)N[C@@H](CC(C)C)C(=O)N[C@@H](Cc1ccccc1)C(=O)OC [SR 43108, N--(4-(pyridin-3-yl)-4-oxobutyryl)-Phe--Nle--Sta--Leu--Phe--OMe] (X6-F[Nle][Sta]LF-OMe) | 447 |
| CCCC[C@H](NC(=O)[C@H](Cc1ccccc1)NC(=O)CCC(O)c1cccnc1)C(=O)N[C@@H](CC(C)C)[C@@H](O)CC(=O)N[C@@H](CC(C)C)C(=O)N[C@@H](Cc1ccccc1)C(=O)OC (stereo partly drawn) [SR 43123, (R,S)--N--(4-(pyridin-3-yl)-4-hydroxybutyryl)-Phe--Nle--Sta--Leu--Phe--OMe] (X7-F[Nle][Sta]LF-OMe) | 81.3 |
| CCCC[C@H](NC(=O)[C@H](Cc1ccccc1)NC(=O)Cc1cccnc1)C(=O)N[C@@H](CC(C)C)[C@@H](O)CC(=O)N[C@@H](CC(C)C)C(=O)N[C@@H](Cc1ccccc1)C(=O)OC [SR 43282, N--(pyridin-3-ylacetyl)-Phe--Nle--Sta--Leu--Phe--OMe] ({Acetyl(3-pyridyl)}-F[Nle][Sta]LF-OMe) | 79.4 |
| CCCC[C@H](NC(=O)[C@H](Cc1ccccc1)NC(=O)Cc1ccccn1)C(=O)N[C@@H](CC(C)C)[C@@H](O)CC(=O)N[C@@H](CC(C)C)C(=O)N[C@@H](Cc1ccccc1)C(=O)OC [SR 43314, N--(pyridin-2-ylacetyl)-Phe--Nle--Sta--Leu--Phe--OMe] ({Acetyl(pyridin-2-yl)}-F[Nle][Sta]LF-OMe) | 295 |
| CCCC[C@H](NC(=O)[C@H](Cc1ccccc1)NC(=O)CCc1cccnc1)C(=O)N[C@@H](CC(C)C)[C@@H](O)CC(=O)N[C@@H](CC(C)C)C(=O)N[C@@H](Cc1ccccc1)C(=O)OC [SR 43454, N--(3-(pyridin-3-yl)propionyl)-Phe--Nle--Sta--Leu--Phe--OMe] ({Propanoyl(3-(3-pyridyl))}-F[Nle][Sta]LF-OMe) | 67.6 |
| CCCC[C@H](NC(=O)[C@H](Cc1ccccc1)NC(=O)CCCc1ccccn1)C(=O)N[C@@H](CC(C)C)[C@@H](O)CC(=O)N[C@@H](CC(C)C)C(=O)N[C@@H](Cc1ccccc1)C(=O)OC [SR 43484, N--(4-(pyridin-2-yl)butyryl)-Phe--Nle--Sta--Leu--Phe--OMe] (X1-F[Nle][Sta]LF-OMe) | 100 |
| CCCC[C@H](NC(=O)[C@H](Cc1ccccc1)NC(=O)CC1CCCN(C(=O)OC(C)(C)C)C1)C(=O)N[C@@H](CC(C)C)[C@@H](O)CC(=O)N[C@@H](CC(C)C)C(=O)N[C@@H](Cc1ccccc1)C(=O)OC (stereo partly shown) [SR 43519, N--(N--Boc--piperidin-3-ylacetyl)-Phe--Nle--Sta--Leu--Phe--OMe] (Boc-[X3]F[Nle][Sta]LF-OMe) | 174 |
| CCCC[C@H](NC(=O)[C@H](Cc1ccccc1)NC(=O)CCc1ccncc1)C(=O)N[C@@H](CC(C)C)[C@@H](O)CC(=O)N[C@@H](CC(C)C)C(=O)N[C@@H](Cc1ccccc1)C(=O)OC [SR 43633, N--(3-(pyridin-4-yl)propionyl)-Phe--Nle--Sta--Leu--Phe--OMe] ({Propanoyl(3-(4-pyridyl))}-F[Nle][Sta]LF-OMe) | 204 |
| CCCC[C@H](NC(=O)[C@H](Cc1ccccc1)NC(=O)Cc1ccncc1)C(=O)N[C@@H](CC(C)C)[C@@H](O)CC(=O)N[C@@H](CC(C)C)C(=O)N[C@@H](Cc1ccccc1)C(=O)OC [SR 43781, N--(pyridin-4-ylacetyl)-Phe--Nle--Sta--Leu--Phe--OMe] ({Acetyl(4-pyridyl)}-F[Nle][Sta]LF-OMe) | 132 |
| CCCC[C@H](NC(=O)[C@H](Cc1ccccc1)NC(=O)CCCc1cccnc1)C(=O)N[C@@H](CC(C)C)[C@@H](O)CC(=O)N[C@@H](CC(C)C)C(=O)N[C@@H](Cc1ccccc1)C(=O)OC [SR 43782, N--(4-(pyridin-3-yl)butyryl)-Phe--Nle--Sta--Leu--Phe--OMe] (X8-F[Nle][Sta]LF-OMe) | 41.7 |
